The test system of this test is calpain. Nature of the test: inhibition of calpain in vitro, synthetic fluorogenic substrates (Sasaki et al.). Format: biochemical. The note with it: percent decrease in rate of substrate hydrolysis. The procedure:
The assays were performed using synthetic fluorogenic substrates. Inhibition of enzyme activity was calculated on the percent decease in the rate of substrate hydrolysis in the presence of inhibitor relative to the rate in its absence. IC50 s(nM) were calculated.

Counter-ions that a name gives are not always drawn.

Drawing on patent publication US6100267A, “Quinoline- and naphthalenecarboxamides, pharmaceutical compositions and methods of inhibiting calpain” (SmithKline Beecham Corporation, priority 1999, dated 2000), this text covers IC50 for twelve molecules.

For `O=C[C@H](Cc1ccccc1)NC(=O)c1cc(-c2ccccc2)nc2ccccc12` [Example 1, (S)-N-(1-formyl-2-phenylethyl)-2-phenyl-4-quinolinecarboxamide], the IC50 (in general, the concentration that inhibits the measured activity by half) came out at 65 nM.

For the molecule `O=C[C@H](Cc1ccccc1)NC(=O)c1cc(-c2ccc(Cl)cc2)nc2ccccc12` [Example 2, (S)-2-(4-Chlorophenyl)-N-(1-formyl-2-phenylethyl)-4-quinolinecarboxamide], the 50% inhibitory concentration (IC50) was 66 nM.

Regarding `O=C[C@H](Cc1ccccc1)NC(=O)c1cc(-c2ccc(-c3ccccc3)cc2)nc2ccccc12` [Example 3, (S)-2-[1.1'-Biphenyl]-4-yl-N-(1-formyl-2-phenylethyl)-4-quinolinecarboxamide], 20 nM corresponded to half-maximal inhibition (IC50).

The molecule `O=C[C@H](Cc1ccccc1)NC(=O)c1cc(C23CC4CC(CC(C4)C2)C3)nc2ccccc12` [Example 4, (S)-2-(1-Adamantyl)-N-(1-formyl-2-phenylethyl)-4-quinolinecarboxamide] came in with an IC50 of 123 nM. Compared with the last molecule, the IC50 is about 6.2-fold higher.

Turning to `O=C[C@H](Cc1ccccc1)NC(=O)c1cc(-c2ccc(Oc3ccccc3)cc2)nc2ccccc12` [Example 5, (S)-N-(1-Formyl-2-phenylethyl)-2-(4-phenoxyphenyl)-4-quinolinecarboxamide], half-maximal inhibition (IC50) required 32 nM.

`O=C[C@H](Cc1ccccc1)NC(=O)c1cc(-c2ccccc2-c2ccccc2)nc2ccccc12` [Example 6, (S)-2-[1,1'-Biphenyl]-2-yl-N-(1-formyl-2-phenylethyl)-4-quinolinecarboxamide] showed an IC50 of 19 nM.

The molecule `O=C[C@H](Cc1ccccc1)NC(=O)c1cc(N2CCN(c3ccccc3)CC2)nc2ccccc12` [Example 8, (S)-N-(1-Formyl-2-phenylethyl)-2-(4-phenyl-1-piperazinyl)-4-quinolinecarboxamide] returned an IC50 of 38 nM.

Take `O=C[C@H](Cc1ccccc1)NC(=O)c1cc(-c2ccc(-c3cccnc3)cc2)nc2ccccc12` [Example 9, (S)-N-(1-Formyl-2-phenylethyl)-2-[4-(3-pyridinyl)phenyl]-4-quinolinecarboxamide]: the IC50 is 46 nM.

On to `O=C[C@H](CCCCNS(=O)(=O)c1ccccc1)NC(=O)c1cc(-c2ccccc2)nc2ccccc12` [Example 10, (S)-N-[1-Formyl-5-[(phenylsulfonyl)amino]pentyl]-2-phenyl-4-quinolinecarboxamide], for which the IC50 amounted to 42 nM. The IC50 values of the last two molecules are within 1.5-fold of each other.

With `O=C[C@H](CCCCNC(=O)OCc1ccncc1)NC(=O)c1cc(-c2ccccc2)nc2ccccc12` [Example 11, (S)-N-(1-Formyl-5-[(4-pyridylmethoxy)carbonylamino]pentyl]-2-phenyl-4-quinolinecarboxamide dihydrochloride salt], the IC50 came to 160 nM.

`O=C[C@H](Cc1ccccc1)NC(=O)c1cc(C#Cc2ccccc2)nc2ccccc12` [Example 12, (S)-N-(1-formyl-2-phenylethyl)-2-(phenylethynyl)-4-quinolinecarboxamide] registered an IC50 of 12 nM.

In turn, `CCCCNC(=O)C(=O)[C@H](Cc1ccccc1)NC(=O)c1cc(C#Cc2ccccc2)nc2ccccc12` [Example 13, N-[3-(n-butylamino)-2,3-dioxo-1-(phenylmethyl)]-2-(phenylethynyl)-4-quinolinecarboxamide] showed an IC50 of 77 nM.
